Among the data in BindingDB's records for doi:10.1021/acs.jmedchem.5b00801 (Duquesne University, 2015) are IC50 values, retold here.

Experiment [1] can be described thus: Binding affinity to human FRbeta expressed in Chinese hamster D4 cells assessed as cell growth inhibition after 96 hrs by CellTiter-Blue assay.
Experiment [2] is described as follows: Binding affinity to human RFC expressed in Chinese hamster PC43-10 cells assessed as cell growth inhibition after 96 hrs by CellTiter-Blue assay.
Experiment [3] is described as follows: Binding affinity to human FRalpha expressed in Chinese hamster RT16 cells assessed as cell growth inhibition after 96 hrs by CellTiter-Blue assay. (Alamar Blue is a resazurin reagent that responds to reducing activity.)
A short description of experiment [4]: Binding affinity to human PCFT expressed in Chinese hamster R2/PCFT4 cells assessed as cell growth inhibition after 96 hrs by CellTiter-Blue assay.
Experiment [5] in a line: Binding affinity to human FRbeta expressed in Chinese hamster D4 cells assessed as cell growth inhibition after 96 hrs by CellTiter-Blue assay in presence of 200 nM folic acid.
Experiment [6] in a line: Binding affinity to human FRalpha expressed in Chinese hamster RT16 cells assessed as cell growth inhibition after 96 hrs by CellTiter-Blue assay in presence of 200 nM folic acid.

By IC50 is commonly meant the concentration needed to halve the response being measured.

Regarding `Nc1nc2[nH]c(CCCc3cc(C(=O)N[C@@H](CCC(=O)O)C(=O)O)cs3)cc2c(=O)[nH]1`, the IC50 came to 0.1 nM in experiment [1]; 189 nM in experiment [2]; 0.61 nM in experiment [3]; 6.5 nM in experiment [4]; 654 nM in experiment [5]; 506 nM in experiment [6].

`Nc1nc(N)c2c(CCCc3cc(C(=O)N[C@@H](CCC(=O)O)C(=O)O)cs3)coc2n1`: the IC50 is 54 nM in experiment [1], above 1000 nM in experiment [2], above 1000 nM in experiment [4] and above 1000 nM in experiment [5].
